In general, IC50 refers to the concentration needed to halve the response being measured.

Holding throughout (assay type): biochemical
The target of one experiment is T1, JAK3 (h) (Homo sapiens, UniProt P52333).
T1 construct: purchased Millipore UK Ltd (assays performed there as a service)
T1 sequence (P52333 1-1124): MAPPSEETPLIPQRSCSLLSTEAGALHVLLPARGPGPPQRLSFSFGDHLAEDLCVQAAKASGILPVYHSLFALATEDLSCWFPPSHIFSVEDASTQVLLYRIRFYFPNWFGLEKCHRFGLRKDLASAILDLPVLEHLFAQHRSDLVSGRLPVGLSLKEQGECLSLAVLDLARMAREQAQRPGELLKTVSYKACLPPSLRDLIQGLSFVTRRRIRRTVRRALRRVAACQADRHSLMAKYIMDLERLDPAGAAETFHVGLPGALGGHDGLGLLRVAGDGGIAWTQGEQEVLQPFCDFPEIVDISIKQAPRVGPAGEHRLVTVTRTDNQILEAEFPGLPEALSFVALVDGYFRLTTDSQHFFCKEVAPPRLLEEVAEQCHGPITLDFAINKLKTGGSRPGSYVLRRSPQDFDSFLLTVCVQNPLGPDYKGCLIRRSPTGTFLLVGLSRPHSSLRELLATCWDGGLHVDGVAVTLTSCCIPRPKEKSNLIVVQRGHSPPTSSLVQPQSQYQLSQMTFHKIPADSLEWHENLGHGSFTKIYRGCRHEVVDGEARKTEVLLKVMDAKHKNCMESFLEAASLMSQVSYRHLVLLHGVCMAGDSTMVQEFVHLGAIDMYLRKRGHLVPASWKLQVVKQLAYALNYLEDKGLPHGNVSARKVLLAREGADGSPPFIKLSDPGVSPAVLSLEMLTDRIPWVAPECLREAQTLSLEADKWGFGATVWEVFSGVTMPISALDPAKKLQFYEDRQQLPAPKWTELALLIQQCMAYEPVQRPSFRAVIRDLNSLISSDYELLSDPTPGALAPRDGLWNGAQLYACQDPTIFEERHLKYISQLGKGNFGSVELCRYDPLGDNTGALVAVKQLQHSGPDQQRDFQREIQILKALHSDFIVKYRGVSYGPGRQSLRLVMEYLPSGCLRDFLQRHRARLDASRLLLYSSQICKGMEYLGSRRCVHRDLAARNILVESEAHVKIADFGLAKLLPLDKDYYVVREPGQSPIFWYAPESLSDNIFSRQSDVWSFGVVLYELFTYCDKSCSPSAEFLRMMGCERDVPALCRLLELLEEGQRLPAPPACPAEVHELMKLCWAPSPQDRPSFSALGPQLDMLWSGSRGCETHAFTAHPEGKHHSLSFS
In words: JAK3 (h) kinase assay. Particulars: [γ-33P-ATP] 10 μM or KM values; 40 minutes at room temperature. As for the experimental part:
(§1) Kinase assays can be performed by measurement of incorporation of γ-^33P ATP into immobilized myelin basic protein (MBP). High binding white 384 well plates (Greiner) are coated with MBP (Sigma # M-1891) by incubation of 60 μL well of 20 μg/mL MBP in Tris-buffered saline (TBS; 50 mM Tris pH 8.0, 138 mM NaCl, 2.7 mM KCl) for 24 h at 4° C. Plates are washed 3× with 100 μL TBS. Kinase reactions are carried out in a total volume of 34 μL in kinase buffer (according to the need to make, for example, 5 mM Hepes pH 7.6, 15 mM NaCl, 0.01% bovine gamma globulin (Sigma #1-5506), 10 mM MgCl2, 1 mM DTT, 0.02% TritonX-100). Compound dilutions are performed in DMSO and added to assay wells to a final DMSO concentration of 1%. Each data point is measured in duplicate, and at least two duplicate assays are performed for each individual compound determination. Enzyme is added to final concentrations of 10 nM or 20 nM, for example. A mixture of unlabeled ATP and γ-^33P ATP is added to start the reaction (2×10^6 cpm of γ-^33P ATP per well (3000 Ci/mmole) and 10 μM unlabeled ATP, typically. The reactions are carried out for 1 hour at room temperature with shaking. Plates are washed 7× with TBS, followed by the addition of 50 μL well scintillation fluid (Wallac). Plates are read using a Wallac Trilux counter. This is only one format of such assays; various other formats are possible, as known to one skilled in the art.
(§2) The above assay procedure can be used to determine the IC50 for inhibition and/or the inhibition constant, Ki. […] The IC50 value is estimated by preparing a 10 point curve using a ½ log dilution series (for example, a typical curve may be prepared using the following compound concentrations: 3 μM, 1 μM, 0.3 μM, 0.1 μM, 0.03 μM, 0.01 μM, 0.003 μM, 0.001 μM, 0.0003 μM and 0 μM).
[…] The reaction is initiated by the addition of the MgATP mix. After incubation for 40 minutes at room temperature, the reaction is stopped by the addition of 3% phosphoric acid solution. 10 μL of the reaction is then spotted onto a P30 filtermat and washed three times for 5 minutes in 75 mM phosphoric acid and once in methanol prior to drying and scintillation counting.
(§3) The kinase assays described herein were performed at Millipore UK Ltd, Dundee Technology Park, Dundee DD2 1SW, UK.

In the next experiment the target is T2, TYK2 (h) (Homo sapiens, UniProt P29597).
T2 construct: purchased Millipore UK Ltd (assays performed there as a service)
T2 sequence (P29597 whole entry): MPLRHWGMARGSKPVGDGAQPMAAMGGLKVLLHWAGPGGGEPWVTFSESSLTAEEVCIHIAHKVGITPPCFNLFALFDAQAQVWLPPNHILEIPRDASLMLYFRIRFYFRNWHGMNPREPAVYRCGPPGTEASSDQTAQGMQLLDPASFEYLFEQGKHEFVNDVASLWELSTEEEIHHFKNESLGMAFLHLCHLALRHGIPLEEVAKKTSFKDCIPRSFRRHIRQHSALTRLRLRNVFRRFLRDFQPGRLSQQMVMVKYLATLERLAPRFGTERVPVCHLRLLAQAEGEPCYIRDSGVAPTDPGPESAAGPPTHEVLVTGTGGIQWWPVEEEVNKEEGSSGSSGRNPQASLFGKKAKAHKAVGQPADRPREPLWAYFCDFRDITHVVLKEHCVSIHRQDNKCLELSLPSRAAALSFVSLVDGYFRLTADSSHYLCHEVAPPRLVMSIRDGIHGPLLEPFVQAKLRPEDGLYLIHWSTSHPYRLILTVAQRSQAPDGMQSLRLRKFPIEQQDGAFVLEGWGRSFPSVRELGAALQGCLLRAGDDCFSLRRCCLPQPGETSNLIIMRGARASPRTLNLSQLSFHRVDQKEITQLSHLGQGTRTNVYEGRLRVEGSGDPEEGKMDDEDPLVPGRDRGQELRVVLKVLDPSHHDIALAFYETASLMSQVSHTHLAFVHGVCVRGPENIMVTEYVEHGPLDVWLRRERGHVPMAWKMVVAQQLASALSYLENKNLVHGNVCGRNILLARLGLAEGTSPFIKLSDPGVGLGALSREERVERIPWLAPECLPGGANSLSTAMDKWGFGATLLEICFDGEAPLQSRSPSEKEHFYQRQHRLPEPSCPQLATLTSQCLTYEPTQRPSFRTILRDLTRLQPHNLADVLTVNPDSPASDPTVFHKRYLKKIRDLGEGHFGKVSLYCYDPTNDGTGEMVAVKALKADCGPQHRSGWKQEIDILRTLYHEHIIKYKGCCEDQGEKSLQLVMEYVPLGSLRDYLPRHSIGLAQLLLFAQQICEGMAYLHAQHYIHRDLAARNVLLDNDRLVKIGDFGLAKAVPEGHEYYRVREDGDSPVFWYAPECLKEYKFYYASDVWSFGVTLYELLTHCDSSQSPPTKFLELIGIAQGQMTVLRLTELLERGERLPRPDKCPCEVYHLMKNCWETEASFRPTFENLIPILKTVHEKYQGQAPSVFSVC
Description: TYK2 (h) kinase assay. Particulars: [γ-33P-ATP] 10 μM or KM values; 40 minutes at room temperature. As to the method:
as §1, §2
TYK2 (h) is incubated with 8 mM MOPS pH 7.0, 0.2 mM EDTA, 250 μM […], 10 mM MgAcetate and [γ-^33P-ATP] […] The reaction is initiated by the addition of the MgATP mix. After incubation for 40 minutes at room temperature, the reaction is stopped by the addition of 3% phosphoric acid solution. 10 μL of the reaction is then spotted onto a P30 filtermat and washed three times for 5 minutes in 75 mM phosphoric acid and once in methanol prior to drying and scintillation counting.
as §3

A further experiment deals with T3, FLT4 (h) (Homo sapiens, UniProt P35916).
T3 construct: purchased Millipore UK Ltd (assays performed there as a service)
T3 sequence (P35916 25-1363): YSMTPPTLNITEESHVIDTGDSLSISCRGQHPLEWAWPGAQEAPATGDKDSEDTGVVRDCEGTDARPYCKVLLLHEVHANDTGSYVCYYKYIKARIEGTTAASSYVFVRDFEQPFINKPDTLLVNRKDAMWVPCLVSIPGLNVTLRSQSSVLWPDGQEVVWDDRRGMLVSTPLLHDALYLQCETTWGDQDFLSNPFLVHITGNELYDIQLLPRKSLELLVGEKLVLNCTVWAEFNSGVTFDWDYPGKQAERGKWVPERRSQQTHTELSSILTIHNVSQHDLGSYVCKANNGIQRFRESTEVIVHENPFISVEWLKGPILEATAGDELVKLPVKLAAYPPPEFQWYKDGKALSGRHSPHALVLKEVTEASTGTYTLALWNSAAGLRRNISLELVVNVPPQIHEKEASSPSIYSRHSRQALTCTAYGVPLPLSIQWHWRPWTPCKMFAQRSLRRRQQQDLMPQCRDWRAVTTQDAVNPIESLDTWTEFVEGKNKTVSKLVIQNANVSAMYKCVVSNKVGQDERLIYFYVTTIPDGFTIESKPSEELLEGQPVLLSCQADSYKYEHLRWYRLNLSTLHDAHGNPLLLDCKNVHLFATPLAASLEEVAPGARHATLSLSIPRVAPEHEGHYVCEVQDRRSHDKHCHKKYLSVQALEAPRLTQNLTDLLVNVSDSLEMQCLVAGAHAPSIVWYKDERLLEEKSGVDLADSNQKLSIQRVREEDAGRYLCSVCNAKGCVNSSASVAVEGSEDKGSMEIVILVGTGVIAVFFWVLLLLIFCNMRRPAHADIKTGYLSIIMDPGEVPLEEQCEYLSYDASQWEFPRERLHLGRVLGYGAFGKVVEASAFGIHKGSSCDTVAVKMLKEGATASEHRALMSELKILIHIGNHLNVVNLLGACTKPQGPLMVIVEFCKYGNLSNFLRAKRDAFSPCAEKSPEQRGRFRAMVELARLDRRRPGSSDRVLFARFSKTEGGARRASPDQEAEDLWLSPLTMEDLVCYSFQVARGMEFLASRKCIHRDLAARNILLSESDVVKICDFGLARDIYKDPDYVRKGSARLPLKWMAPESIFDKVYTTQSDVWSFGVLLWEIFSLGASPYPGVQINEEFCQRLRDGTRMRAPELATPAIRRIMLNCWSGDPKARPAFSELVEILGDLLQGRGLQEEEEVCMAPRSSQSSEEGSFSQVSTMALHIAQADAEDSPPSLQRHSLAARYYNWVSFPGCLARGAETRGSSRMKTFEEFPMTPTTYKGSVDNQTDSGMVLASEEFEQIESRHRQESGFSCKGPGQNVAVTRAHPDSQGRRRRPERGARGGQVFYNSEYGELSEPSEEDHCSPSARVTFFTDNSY
Description: FLT4 (h) kinase assay. Particulars: [γ-33P-ATP] 10 μM or KM values; cells tagged (Flt4); read-out: IC50 (Flt4), printed in the FLT3 (h) column. As to the method: as §1, §2
FLT4 (h) is incubated with 8 mM MOPS pH 7.0, 0.2 mM EDTA, 50 μM […], 10 mM MgAcetate and [γ-^33P-ATP] […] The reaction is initiated by the addition of the MgATP mix. After incubation for 40 minutes at room temperature, the reaction is stopped by the addition of 3% phosphoric acid solution. 10 μL of the reaction is then spotted onto a P30 filtermat and washed three times for 5 minutes in 75 mM phosphoric acid and once in methanol prior to drying and scintillation counting.
as §3

For the molecule `N#Cc1ccc(N2CCC(Nc3nc(Nc4ccn5c(C(F)F)nnc5c4)ncc3Cl)CC2)nc1` [Example 30, 6-(4-((5-chloro-2-((3-(difluoromethyl)-[1,2,4]triazolo[4,3-a]pyridin-7-yl)amino)pyrimidin-4-yl)amino)piperidin-1-yl)nicotinonitrile], the IC50 on JAK3 (h) was determined as 0.127 µM; at TYK2 (h) it was 0.004 µM.
In the case of `Cc1nc2cc(Nc3ncc(Cl)c(NC4CCN(c5ccc(C#N)cn5)CC4)n3)ccn2n1` [Example 32, 6-(4-((5-chloro-2-((2-methyl-[1,2,4]triazolo[1,5-a]pyridin-7-yl)amino)pyrimidin-4-yl)amino)piperidin-1-yl)nicotinonitrile], the IC50 against JAK3 (h) is 0.06 µM; against TYK2 (h) it was 0.002 µM.
In the case of `CC(C)(O)c1nc2cc(Nc3ncc(Cl)c(NC4CCN(c5ccc(C#N)nn5)CC4)n3)ccn2n1` [Example 55, 6-(4-((5-chloro-2-((2-(2-hydroxypropan-2-yl)-[1,2,4]triazolo[1,5-a]pyridin-7-yl)amino)pyrimidin-4-yl)amino)piperidin-1-yl)pyridazine-3-carbonitrile], the IC50 against JAK3 (h) amounted to 0.291 µM; on FLT4 (h), 0.095 µM.
In the case of `CC(O)Cn1cnc2cc(Nc3ncc(Cl)c(NC4CCN(c5ccc(C#N)cn5)CC4)n3)ccc21` (centres unmarked) [Example 61, 6-(4-((5-chloro-2-((1-(2-hydroxypropyl)-1H-benzo[d]imidazol-5-yl)amino)pyrimidin-4-yl)amino)piperidin-1-yl)nicotinonitrile], the figures for the IC50 on JAK3 (h), at FLT4 (h) and against TYK2 (h) were 0.005 µM, 0.02 µM and 0.0009 µM, respectively.
For `CC(C)(O)Cc1nc2ccc(Nc3ncc(Cl)c(NC4CCN(c5ccc(C#N)cn5)CC4)n3)cn2n1` [Example 67, 6-(4-((5-chloro-2-((2-(2-hydroxy-2-methylpropyl)-[1,2,4]triazolo[1,5-a]pyridin-6-yl)amino)pyrimidin-4-yl)amino)piperidin-1-yl)nicotinonitrile], the IC50 worked out at 0.113 µM at FLT4 (h) and 0.008 µM against TYK2 (h).
For the molecule `CC(C)(O)Cn1nnc2cc(Nc3ncc(Cl)c(NC4CCN(c5ccc(C#N)cn5)CC4)n3)ccc21` [Example 69, 6-(4-((5-chloro-2-((1-(2-hydroxy-2-methylpropyl)-1H-benzo[d][1,2,3]triazol-5-yl)amino)pyrimidin-4-yl)amino)piperidin-1-yl)nicotinonitrile], the IC50 against JAK3 (h) was 0.005 µM; on FLT4 (h), 0.015 µM; at TYK2 (h), 0.0007 µM.
Regarding `CC(C)(O)Cc1cn2cc(Nc3ncc(Cl)c(NC4CCN(c5ccc(C#N)cn5)CC4)n3)ccc2n1` [Example 73, 6-(4-((5-chloro-2-((2-(2-hydroxy-2-methylpropyl)imidazo[1,2-a]pyridin-6-yl)amino)pyrimidin-4-yl)amino)piperidin-1-yl)nicotinonitrile], the half-maximal inhibitory concentration (IC50) turned out to be 0.112 µM against JAK3 (h) and 0.087 µM on FLT4 (h).
Turning to `CC(C)(O)Cc1nnc2cc(Nc3ncc(Cl)c(NC4CCN(c5ccc(C#N)cn5)CC4)n3)ccn12` [Example 74, 6-(4-((5-chloro-2-((3-(2-hydroxy-2-methylpropyl)-[1,2,4]triazolo[4,3-a]pyridin-7-yl)amino)pyrimidin-4-yl)amino)piperidin-1-yl)nicotinonitrile], the IC50 against JAK3 (h) was 0.064 µM; at FLT4 (h), 0.057 µM.
Consider `CC(C)(O)Cc1nnc2cc(Nc3ncc(Cl)c(NC4CCN(c5ccc(C#N)nn5)CC4)n3)ccn12` [Example 75, 6-(4-((5-chloro-2-((3-(2-hydroxy-2-methylpropyl)-[1,2,4]triazolo[4,3-a]pyridin-7-yl)amino)pyrimidin-4-yl)amino)piperidin-1-yl)pyridazine-3-carbonitrile], for which the IC50 at JAK3 (h) and on FLT4 (h) was 0.202 µM each time.
For `CC(C)(O)Cc1nc2cc(Nc3ncc(Cl)c(NC4CCN(c5ccc(C#N)nn5)CC4)n3)ccn2n1` [Example 77, 6-(4-((5-chloro-2-((2-(2-hydroxy-2-methylpropyl)-[1,2,4]triazolo[1,5-a]pyridin-7-yl)amino)pyrimidin-4-yl)amino)piperidin-1-yl)pyridazine-3-carbonitrile], the IC50 came to 0.353 µM on JAK3 (h), 0.166 µM at FLT4 (h) and 0.009 µM against TYK2 (h).
Regarding `CC(C)(O)Cc1nc2cc(Nc3ncc(Cl)c(NC4CCN(c5ccc(C#N)cn5)CC4)n3)ccn2n1` [Example 78, 6-(4-((5-chloro-2-((2-(2-hydroxy-2-methylpropyl)-[1,2,4]triazolo[1,5-a]pyridin-7-yl)amino)pyrimidin-4-yl)amino)piperidin-1-yl)nicotinonitrile], the IC50 stood at 0.344 µM on JAK3 (h), 0.117 µM at FLT4 (h) and 0.005 µM at TYK2 (h).

The values above are taken from US10683297B2 (Sunshine Lake Pharma Co., Ltd., priority 2017, dated 2020).
